The values that follow come from the supplement of paper PMC11851430, “Workflow for E3 Ligase Ligand Validation for PROTAC Development” (ACS Chemical Biology, 2025).

Some targets named below: PAK4 (UniProt O96013); NEK9 (UniProt Q8TD19); ITK (UniProt Q08881); PRKD3 (UniProt O94806); SRC (UniProt P12931); PKN1 (UniProt Q16512); TAOK3 (UniProt Q9H2K8); AURKB (UniProt Q96GD4); FGFR1 (UniProt P11362); MAP3K11 (UniProt Q16584); CSK (UniProt P41240); CDC42BPA (UniProt Q5VT25); MAP3K4 (UniProt Q9Y6R4); TGFBR1 (UniProt P36897); ROCK1 (UniProt Q13464); LATS1 (UniProt O95835); PRKCA (UniProt P17252); TAOK2 (UniProt Q9UL54); PHKG2 (UniProt P15735); ACVR1 (UniProt Q04771); PRKAA1 (UniProt Q13131); CDK1 (UniProt P06493).

What all share (experiment): apparent dissociation constant Kd app (Kinobeads competition, EC50 x correction factor)
Common to all, as to settings: lysate: Jurkat cell lysate

Chain of ITK (Q08881 whole entry): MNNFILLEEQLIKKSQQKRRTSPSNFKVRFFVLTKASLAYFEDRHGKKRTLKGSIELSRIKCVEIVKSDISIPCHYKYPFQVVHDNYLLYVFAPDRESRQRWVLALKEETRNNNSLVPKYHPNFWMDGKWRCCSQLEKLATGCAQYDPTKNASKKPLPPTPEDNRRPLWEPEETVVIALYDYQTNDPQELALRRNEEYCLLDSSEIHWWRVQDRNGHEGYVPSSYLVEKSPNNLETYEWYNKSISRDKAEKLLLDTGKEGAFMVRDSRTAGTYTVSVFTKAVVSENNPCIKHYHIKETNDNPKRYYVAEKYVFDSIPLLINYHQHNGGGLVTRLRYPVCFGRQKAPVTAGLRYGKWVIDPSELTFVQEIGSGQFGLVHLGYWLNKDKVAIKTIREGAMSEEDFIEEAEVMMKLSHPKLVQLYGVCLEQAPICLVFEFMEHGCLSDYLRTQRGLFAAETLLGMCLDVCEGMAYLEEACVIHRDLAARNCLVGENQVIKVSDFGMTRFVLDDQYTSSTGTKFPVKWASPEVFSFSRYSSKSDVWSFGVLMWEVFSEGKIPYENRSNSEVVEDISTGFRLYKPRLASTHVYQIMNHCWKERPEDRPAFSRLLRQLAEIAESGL
Chain of MAP3K4 (Q9Y6R4 whole entry): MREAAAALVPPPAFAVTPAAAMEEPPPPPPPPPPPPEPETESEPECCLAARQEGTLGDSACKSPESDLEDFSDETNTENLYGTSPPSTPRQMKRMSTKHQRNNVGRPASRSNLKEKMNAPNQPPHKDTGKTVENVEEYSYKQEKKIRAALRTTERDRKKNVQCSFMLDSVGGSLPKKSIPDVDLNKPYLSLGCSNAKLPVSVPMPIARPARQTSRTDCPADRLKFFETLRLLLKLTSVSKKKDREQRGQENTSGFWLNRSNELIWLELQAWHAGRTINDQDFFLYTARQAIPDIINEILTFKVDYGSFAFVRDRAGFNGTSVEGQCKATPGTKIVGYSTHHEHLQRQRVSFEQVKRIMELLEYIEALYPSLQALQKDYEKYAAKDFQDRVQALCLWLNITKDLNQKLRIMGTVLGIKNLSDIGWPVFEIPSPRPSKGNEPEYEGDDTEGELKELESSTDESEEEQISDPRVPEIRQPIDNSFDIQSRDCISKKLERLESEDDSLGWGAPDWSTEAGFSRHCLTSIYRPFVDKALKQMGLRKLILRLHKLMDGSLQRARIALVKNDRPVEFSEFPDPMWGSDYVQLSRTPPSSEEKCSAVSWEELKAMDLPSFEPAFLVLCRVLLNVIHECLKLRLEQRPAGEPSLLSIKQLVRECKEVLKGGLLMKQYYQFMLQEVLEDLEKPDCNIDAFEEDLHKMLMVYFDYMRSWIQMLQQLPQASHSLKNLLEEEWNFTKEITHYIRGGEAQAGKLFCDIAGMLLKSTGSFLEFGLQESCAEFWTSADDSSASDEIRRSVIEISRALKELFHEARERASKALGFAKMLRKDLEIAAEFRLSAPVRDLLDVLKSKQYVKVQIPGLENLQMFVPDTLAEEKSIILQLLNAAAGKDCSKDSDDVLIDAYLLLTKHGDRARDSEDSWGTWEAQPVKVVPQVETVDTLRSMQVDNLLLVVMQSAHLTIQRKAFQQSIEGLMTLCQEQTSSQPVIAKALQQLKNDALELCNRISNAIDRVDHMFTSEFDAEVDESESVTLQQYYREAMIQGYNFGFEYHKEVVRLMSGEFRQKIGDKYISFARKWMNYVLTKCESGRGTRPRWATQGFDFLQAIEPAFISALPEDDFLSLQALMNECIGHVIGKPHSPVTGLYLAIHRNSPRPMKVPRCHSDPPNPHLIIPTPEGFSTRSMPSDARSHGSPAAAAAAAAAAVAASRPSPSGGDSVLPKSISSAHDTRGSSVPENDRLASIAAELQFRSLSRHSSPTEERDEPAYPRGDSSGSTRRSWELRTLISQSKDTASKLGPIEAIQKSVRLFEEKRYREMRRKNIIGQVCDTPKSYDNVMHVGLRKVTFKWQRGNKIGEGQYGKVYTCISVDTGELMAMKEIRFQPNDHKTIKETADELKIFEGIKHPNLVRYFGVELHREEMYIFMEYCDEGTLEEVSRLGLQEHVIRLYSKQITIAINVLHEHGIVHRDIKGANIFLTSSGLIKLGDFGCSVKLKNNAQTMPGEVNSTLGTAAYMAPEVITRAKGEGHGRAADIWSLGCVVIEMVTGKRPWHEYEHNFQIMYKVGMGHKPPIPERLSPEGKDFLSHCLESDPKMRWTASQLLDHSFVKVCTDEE
Chain of NEK9 (Q8TD19 whole entry): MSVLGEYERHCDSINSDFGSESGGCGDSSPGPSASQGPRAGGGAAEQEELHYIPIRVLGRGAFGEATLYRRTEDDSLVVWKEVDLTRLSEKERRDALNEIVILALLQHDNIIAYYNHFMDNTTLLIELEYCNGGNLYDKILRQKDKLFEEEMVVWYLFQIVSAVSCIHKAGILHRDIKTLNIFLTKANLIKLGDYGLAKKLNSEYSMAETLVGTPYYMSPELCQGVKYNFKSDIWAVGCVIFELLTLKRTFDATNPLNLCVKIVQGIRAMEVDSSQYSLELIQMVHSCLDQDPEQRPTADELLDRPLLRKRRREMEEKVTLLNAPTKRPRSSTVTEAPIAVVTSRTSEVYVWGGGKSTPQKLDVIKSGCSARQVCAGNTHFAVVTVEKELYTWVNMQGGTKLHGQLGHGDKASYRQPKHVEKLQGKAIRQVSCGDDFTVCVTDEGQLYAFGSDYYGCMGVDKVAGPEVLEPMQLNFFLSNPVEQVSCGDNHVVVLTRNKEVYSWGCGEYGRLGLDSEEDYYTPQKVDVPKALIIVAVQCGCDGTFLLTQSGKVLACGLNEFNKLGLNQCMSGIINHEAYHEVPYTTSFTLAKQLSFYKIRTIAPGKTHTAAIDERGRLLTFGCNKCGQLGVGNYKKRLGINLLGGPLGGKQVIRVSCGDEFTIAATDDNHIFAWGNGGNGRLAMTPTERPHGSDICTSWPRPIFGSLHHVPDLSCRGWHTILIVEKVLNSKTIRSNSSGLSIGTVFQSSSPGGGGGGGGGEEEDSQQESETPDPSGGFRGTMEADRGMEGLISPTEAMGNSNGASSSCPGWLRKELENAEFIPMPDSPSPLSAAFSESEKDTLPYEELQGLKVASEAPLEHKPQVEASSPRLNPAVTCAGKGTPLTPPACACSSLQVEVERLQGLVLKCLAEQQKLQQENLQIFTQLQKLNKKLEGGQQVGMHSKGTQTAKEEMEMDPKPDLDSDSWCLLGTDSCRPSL
Chain of AURKB (Q96GD4 whole entry): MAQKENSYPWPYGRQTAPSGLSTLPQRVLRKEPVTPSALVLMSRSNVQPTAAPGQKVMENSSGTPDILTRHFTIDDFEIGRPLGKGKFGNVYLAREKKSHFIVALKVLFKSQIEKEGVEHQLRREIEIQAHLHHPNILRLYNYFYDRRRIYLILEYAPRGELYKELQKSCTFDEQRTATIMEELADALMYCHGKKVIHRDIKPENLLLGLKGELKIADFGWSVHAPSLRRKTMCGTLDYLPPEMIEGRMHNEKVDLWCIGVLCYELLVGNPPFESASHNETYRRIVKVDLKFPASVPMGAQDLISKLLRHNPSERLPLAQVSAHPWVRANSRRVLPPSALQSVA
Chain of TAOK2 (Q9UL54 whole entry): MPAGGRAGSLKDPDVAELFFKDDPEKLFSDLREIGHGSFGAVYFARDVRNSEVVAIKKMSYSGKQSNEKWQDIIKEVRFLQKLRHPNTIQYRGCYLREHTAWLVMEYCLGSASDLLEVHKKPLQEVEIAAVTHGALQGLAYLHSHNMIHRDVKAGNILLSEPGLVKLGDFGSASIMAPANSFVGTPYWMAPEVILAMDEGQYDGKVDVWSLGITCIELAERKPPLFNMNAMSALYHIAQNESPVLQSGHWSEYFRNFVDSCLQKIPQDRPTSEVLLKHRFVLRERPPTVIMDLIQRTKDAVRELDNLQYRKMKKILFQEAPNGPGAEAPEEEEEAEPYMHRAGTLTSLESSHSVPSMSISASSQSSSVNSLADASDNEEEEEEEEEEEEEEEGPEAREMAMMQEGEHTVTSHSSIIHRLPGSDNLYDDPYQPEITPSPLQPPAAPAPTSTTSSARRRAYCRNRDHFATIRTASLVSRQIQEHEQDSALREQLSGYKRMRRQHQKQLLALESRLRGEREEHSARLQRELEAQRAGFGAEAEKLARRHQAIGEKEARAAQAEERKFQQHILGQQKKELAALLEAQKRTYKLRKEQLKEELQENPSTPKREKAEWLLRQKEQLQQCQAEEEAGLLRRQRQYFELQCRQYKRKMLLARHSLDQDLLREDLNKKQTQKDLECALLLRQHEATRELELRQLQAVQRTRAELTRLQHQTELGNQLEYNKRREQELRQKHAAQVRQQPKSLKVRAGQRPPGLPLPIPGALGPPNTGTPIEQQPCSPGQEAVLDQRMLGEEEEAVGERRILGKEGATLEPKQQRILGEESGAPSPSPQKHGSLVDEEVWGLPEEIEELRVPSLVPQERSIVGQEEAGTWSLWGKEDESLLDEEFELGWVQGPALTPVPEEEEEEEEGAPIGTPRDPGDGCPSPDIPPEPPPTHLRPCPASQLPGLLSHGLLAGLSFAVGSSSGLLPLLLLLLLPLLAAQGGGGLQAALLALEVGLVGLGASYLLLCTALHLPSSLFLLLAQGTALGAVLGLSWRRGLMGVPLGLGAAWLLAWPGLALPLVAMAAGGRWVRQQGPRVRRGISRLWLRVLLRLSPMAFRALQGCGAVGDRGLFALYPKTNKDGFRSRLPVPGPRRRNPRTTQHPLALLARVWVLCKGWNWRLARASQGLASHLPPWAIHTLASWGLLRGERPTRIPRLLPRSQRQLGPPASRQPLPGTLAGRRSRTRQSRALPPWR
Chain of CDK1 (P06493 whole entry, looked up): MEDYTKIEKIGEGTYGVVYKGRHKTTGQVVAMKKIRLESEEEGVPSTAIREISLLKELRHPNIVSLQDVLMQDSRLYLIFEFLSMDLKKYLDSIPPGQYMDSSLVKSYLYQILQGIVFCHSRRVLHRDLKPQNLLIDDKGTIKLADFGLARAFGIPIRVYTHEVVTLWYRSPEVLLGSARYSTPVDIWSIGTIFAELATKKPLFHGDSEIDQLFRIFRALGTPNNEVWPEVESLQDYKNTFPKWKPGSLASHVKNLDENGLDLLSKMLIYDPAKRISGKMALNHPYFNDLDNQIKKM

Turning to `NC(=O)c1ccccc1Nc1nc(Nc2ccc(N3CCNCC3)cc2)ncc1Cl`, the Kd on PAK4 amounted to 424 nM; at NEK9, 96.2 nM; on ITK, 38.6 nM; at PRKD3, 255 nM; at SRC, 808 nM; on PKN1 it was 1520 nM. The Kd stood at 878 nM at TAOK3; 35.6 nM at AURKB; 144 nM at FGFR1; 231 nM at MAP3K11; 2170 nM at CSK; 1320 nM at CDC42BPA. Further, the Kd on MAP3K4 was found to be 90 nM; on TGFBR1, 1370 nM; on ROCK1 it was 2000 nM; at LATS1 it was 48.9 nM; at PRKCA, 966 nM; on TAOK2, 558 nM. For the same molecule, the Kd at PHKG2 was 1150 nM; on ACVR1, 1270 nM; on PRKAA1, 83 nM; at CDK1, 1910 nM.
